Measured values: patent US9440982B2 (Eolas Therapeutics, Inc., priority 2012, dated 2016)

The compounds below were run against T1, OX1 (Homo sapiens, UniProt O43613) (assay: Orexin receptor cell-based functional assay, [Ca2+]i by FLIPR, CHO-OX1 cells). Settings: CHO-OX1 cells, [Ca2+]i by FLIPR, antagonist dose-range 0.1 nM-10 μM, EC90 of OXA; read-out: OX1.
T1 construct: expressed in transfected cells; host or cells: CHO (CHO-OX1, kept under selection antibiotic)
T1 sequence (O43613 1-425): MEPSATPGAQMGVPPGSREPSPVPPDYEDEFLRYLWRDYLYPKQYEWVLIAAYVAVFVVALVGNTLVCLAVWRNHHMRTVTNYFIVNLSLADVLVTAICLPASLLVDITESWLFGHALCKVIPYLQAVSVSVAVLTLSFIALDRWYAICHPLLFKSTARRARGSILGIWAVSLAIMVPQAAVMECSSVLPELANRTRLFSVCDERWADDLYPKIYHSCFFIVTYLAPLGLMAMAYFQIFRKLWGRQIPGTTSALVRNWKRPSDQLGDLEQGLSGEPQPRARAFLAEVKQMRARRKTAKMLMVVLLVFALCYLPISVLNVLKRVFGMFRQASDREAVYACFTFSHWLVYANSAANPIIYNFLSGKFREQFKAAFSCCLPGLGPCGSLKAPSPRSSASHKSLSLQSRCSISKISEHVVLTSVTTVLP
Method: Measurement of [Ca^2+]i using a FLIPR: CHO—OX1 or CHO—OX2 cells are seeded into black-walled clear-base 384-well plates (Costar) at a density of 20,000 cells per well in F12-K medium supplemented with 10% FBS and selection antibiotic (500 ug/ml G418 or 15 ug/ml Blasticidin) and cultured overnight. The cells are incubated with equal volume of calcium4 loading buffer (Molecular Devices, Inc.) containing 2.5 mM probenecid at 37° C. for 30 min, followed by putative OX1 or OX2 receptor antagonists (dose-range 0.1 nM-10 μM) for another 30 min.
The cells are incubated with equal volume of calcium6 loading buffer (Molecular Devices, Inc.) containing 2.5 mM probenecid at 37° C. for 2 h, followed by test compounds (dose-range 0.1 nM-10 μM) for another 30 min.
With `C[C@@H]1CCCN(C(=O)c2c(-c3ncccn3)ccc(F)c2F)[C@@H]1CNc1ncc(C(F)(F)F)cn1` [Example A389, (2,3-Difluoro-6-(pyrimidin-2-yl)phenyl)((2S,3R)-3-methyl-2-(((5-(trifluoromethyl)pyrimidin-2-yl)amino)methyl)piperidin-1-yl)methanone] the IC50 was 5 nM. Compound `Cc1ccc(-c2ccnn2C)c(C(=O)N2CCC[C@@H](C)[C@H]2CNc2nc3cc(Cl)ccc3o2)c1` [Example A50, ((2S,3R)-2-(((5-Chlorobenzo[d]oxazol-2-yl)amino)methyl)-3-methylpiperidin-1-yl)(5-methyl-2-(1-methyl-1H-pyrazol-5-yl)phenyl)methanone] has an IC50 of 230 nM. For `Cc1nc(C(=O)N2CCCC3CN(c4ccc(C(F)(F)F)cn4)CC32)c(-c2ccc(F)cc2)s1` (centres unmarked) [Example A77, (5-(4-Fluorophenyl)-2-methylthiazol-4-yl)(6-(5-(trifluoromethyl)pyridin-2-yl)octahydro-1H-pyrrolo[3,4-b]pyridin-1-yl)methanone], the IC50 was greater than 1000 nM. Compound `Cc1ccc(-n2cnc(C(F)(F)F)n2)c(C(=O)N2CCC[C@@H](C)[C@H]2CNc2nc3cc(Cl)ccc3o2)c1` [Example A64, ((2S,3R)-2-(((5-Chlorobenzo[d]oxazol-2-yl)amino)methyl)-3-methylpiperidin-1-yl)(5-methyl-2-(3-(trifluoromethyl)-1H-1,2,4-triazol-1-yl)phenyl)methanone] has an IC50 greater than 1000 nM. Compound `COc1ccc(-n2nccn2)c(C(=O)N2CCC[C@@H](C)[C@H]2CNc2ncc(C(F)(F)F)cn2)c1F` [Example A339, (2-Fluoro-3-methoxy-6-(2H-1,2,3-triazol-2-yl)phenyl)((2S,3R)-3-methyl-2-(((5-(trifluoromethyl)pyrimidin-2-yl)amino)methyl)piperidin-1-yl)methanone] has an IC50 of 5 nM. In the case of `Cc1ccc(C(=O)N2CCC[C@@H](C)[C@H]2CNc2ccc(C(F)(F)F)cn2)c(-n2nccn2)c1` [Example A273, ((2S,3R)-3-Methyl-2-(((5-(trifluoromethyl)pyridin-2-yl)amino)methyl)piperidin-1-yl)(4-methyl-2-(2H-1,2,3-triazol-2-yl)phenyl)methanone], the IC50 is reported as 6 nM. For `Cc1ccc(-c2ccnn2C)c(C(=O)N2CCC[C@@H](C)[C@H]2CNc2ccc(F)cn2)c1` [Example A61, ((2S,3R)-2-(((5-Fluoropyridin-2-yl)amino)methyl)-3-methylpiperidin-1-yl)(5-methyl-2-(1-methyl-1H-pyrazol-5-yl)phenyl)methanone], the IC50 was 1100 nM. Work on `Cc1ccc(-c2cnn(C)c2)c(C(=O)N2CCC[C@@H](C)[C@H]2CNc2ccc(F)cn2)c1` [Example A44, ((2S,3R)-2-(((5-Fluoropyridin-2-yl)-amino)methyl)-3-methylpiperidin-1-yl)(5-methyl-2-(1-methyl-1H-pyrazol-4-yl)phenyl)methanone] yielded an IC50 of 11 nM. `C[C@@H]1CCCN(C(=O)c2c(-n3nccn3)ccc(F)c2F)[C@@H]1CNc1ccc(C(F)(F)F)cn1` [Example A336, (2,3-Difluoro-6-(2H-1,2,3-triazol-2-yl)phenyl)((2S,3R)-3-methyl-2-(((5-(trifluoromethyl)pyridin-2-yl)amino)m*ethyl)piperidin-1-yl)methanone] showed an IC50 of 10 nM. For `Cc1ccc(-c2ccccn2)c(C(=O)N2CCC[C@@H](C)[C@H]2CNc2ccc(F)cn2)c1` [Example A58, ((2S,3R)-2-(((5-Fluoropyridin-2-yl)amino)methyl)-3-methylpiperidin-1-yl)(5-methyl-2-(pyridin-2-yl)phenyl)methanone], the IC50 was 230 nM.

Same assay, conditions: Table 2; CHO-OX1 cells, EC90 of OXA; read-out: IC50 Bioactivity OX1
Work on `Cc1ccc(-c2ncccn2)c(C(=O)N2CCC[C@@H](C)[C@H]2CNc2ccc(C(F)(F)F)cn2)c1` (racemic) [Example 112, rac-cis-(3-Methyl-2-(((5-(trifluoromethyl)pyridin-2-yl)amino)methyl)piperidin-1-yl)(5-methyl-2-(pyrimidin-2-yl)phenyl)methanone] yielded an IC50 of 17 nM. `Cc1nc(C(=O)N2C[C@H]3CCC[C@H]3C2COc2ccc(C(F)(F)F)cn2)c(-c2ccc(F)cc2)s1` (mixture of isomers) [Example 101, (5-(4-Fluorophenyl)-2-methylthiazol-4-yl)(1-(((5-(trifluoromethyl)pyridin-2-yl)oxy)methyl)hexahydrocyclopenta[c]pyrrol-2(1H)-yl)methanone] gave an IC50 of 3000 nM. In the case of `Cc1nc(C(=O)N2CCC[C@@H](C)[C@H]2CNc2ncc(Cl)cn2)c(-c2ccc(F)cc2)s1` (racemic) [Example 82, rac-cis-(2-(((5-Chloropyrimidin-2-yl)amino)methyl)-3-methylpiperidin-1-yl)(5-(4-fluorophenyl)-2-methylthiazol-4-yl)methanone], the IC50 is reported as 4 nM. Compound `Cc1nc(C(=O)N2CC3CCCCC3C2CNC(=O)c2cccc3occc23)c(-c2ccccc2)s1` (single isomer, unassigned) [Example 71] has an IC50 of 40 nM. For `Cc1nc(C(=O)N2CCC[C@@H](C)[C@H]2CNc2ccc(C#N)cn2)c(-c2ccc(F)cc2)s1` (racemic) [Example 91, rac-cis-6-(((1-(5-(4-Fluorophenyl)-2-methylthiazole-4-carbonyl)-3-methylpiperidin-2-yl)methyl)amino)nicotinonitrile], the IC50 was 140 nM. Work on `CC1CCCC(CCOc2ccccc2)N1C(=O)c1ccccc1-c1ccccc1` (racemic) [Example 31, rac-Biphenyl-2-yl(2-methyl-6-(2-phenoxyethyl)piperidin-1-yl)methanone] yielded an IC50 of 10 nM. `NC1CCC(CNC(=O)c2cccc3cccnc23)N(C(=O)c2ccccc2-c2ccccc2)C1` (racemic) [Example 39, N-((5-Amino-1-(biphenylcarbonyl)piperidin-2-yl)methyl)quinoline-8-carboxamide] was tested, and the IC50 was 30 nM. `Cc1ccc(-c2cnc(N3CCN(C)CC3)nc2)c(C(=O)N2CCC[C@@H](C)[C@H]2CNc2ccc(C(F)(F)F)cn2)c1` (racemic) [Example 109, rac-cis-(3-Methyl-2-(((5-(trifluoromethyl)pyridin-2-yl)amino)methyl)piperidin-1-yl)(5-methyl-2-(2-(4-methylpiperazin-1-yl)pyrimidin-5-yl)phenyl)methanone] showed an IC50 greater than 1000 nM. `Cc1ccc(-c2cncnc2)c(C(=O)N2CCC[C@@H](C)[C@H]2CNc2ccc(C(F)(F)F)cn2)c1` (racemic) [Example 107, rac-cis-(3-Methyl-2-(((5-(trifluoromethyl)pyridin-2-yl)amino)methyl)piperidin-1-yl) (5-methyl-2-(pyrimidin-5-yl)phenyl)methanone] showed an IC50 of 78 nM. With `C[C@@H]1CCCN(C(=O)c2ccccc2Oc2ccccc2)[C@@H]1CNc1ccc(C(F)(F)F)cn1` (racemic) [Example 118, rac-cis-(3-Methyl-2-(((5-(trifluoromethyl)pyridin-2-yl)amino)methyl)piperidin-1-yl) (2-phenoxyphenyl)methanone] the IC50 was 262 nM. In the case of `CCc1cnc(NC[C@@H]2[C@H](CC)CCCN2C(=O)c2nc(C)sc2-c2ccc(F)cc2)nc1` (racemic) [Example 78, rac-cis-(3-Ethyl-2-(((5-ethylpyrimidin-2-yl)amino)methyl)piperidin-1-yl)(5-(4-fluorophenyl)-2-methylthiazol-4-yl)methanone], the IC50 is reported as 2 nM. Compound `Cc1nc(C(=O)N2CCC[C@@H](C)[C@H]2CNc2ccc(Cl)cn2)c(-c2ccc(F)cc2)s1` (racemic) [Example 18, rac-cis-(2-(((5-Chloropyridin-2-yl)amino)methyl)-3-methylpiperidin-1-yl)(5-(4-fluorophenyl)-2-methylthiazol-4-yl)methanone] has an IC50 of 16 nM. `O=C(NCC1CCC(NCc2ccccc2)CN1C(=O)c1ccccc1-c1ccccc1)c1cccc2cccnc12` (racemic) [Example 40, N-((5-(Benzylamino)-1-(biphenylcarbonyl)piperidin-2-yl)methyl)quinoline-8-carboxamide] gave an IC50 of 600 nM. In the case of `Cc1nc(-c2ccccc2)c(C(=O)N2CC(F)CCC2CNC(=O)c2cccc3cccnc23)s1` (racemic) [Example 35, N-((5-Fluoro-1-(2-methyl-4-phenylthiazole-5-carbonyl)piperidin-2-yl)methyl)quinoline-8-carboxamide], the IC50 is reported as 2 nM. Work on `Cc1ccc(-n2nccn2)c(C(=O)N2CCC[C@@H](C)[C@H]2CNc2ncc(C(F)(F)F)cn2)c1` (racemic) [Example 97, rac-cis-(3-Methyl-2-(((5-(trifluoromethyl)pyrimidin-2-yl)amino)methyl)piperidin-1-yl)(5-methyl-2-(2H-1,2,3-triazol-2-yl)phenyl)methanone] yielded an IC50 of 9 nM. For `Cc1nc(-c2ccccc2)c(C(=O)N2CC(NCCO)CCC2CNC(=O)c2cccc3cccnc23)s1` (racemic) [Example 47, N-((5-(2-Hydroxyethylamino)-1-(2-methyl-4-phenylthiazole-5-carbonyl)piperidin-2-yl)methyl)quinoline-8-carboxamide], the IC50 was less than 10000 nM.
